Experimental data from patent US20060039974A1, “Sustained release preparation” (TAKEDA PHARMACEUTICAL COMPANY LIMITED, priority 2002, published 2006).

Test: Dissolution test, Paddle Method, CTAB-containing The Japanese Pharmacopoeia 2nd fluid
Type: physicochemical
Settings: after 10 min; control group; 0.1% CTAB-containing JP 2nd fluid 500 mL, 100 rpm
Protocol: To be specific, the tablets obtained in Examples 1-3 were subjected to a dissolution test (Paddle Method, 0.1% cetyltrimethylammoniumbromide (CTAB)-containing The Japanese Pharmacopoeia Degradation Test2nd fluid (hereinafter to be abbreviated as CTAB-containing The Japanese Pharmacopoeia Degradation Test 2nd fluid) 500 mL, number of rotation 100 rpm). In addition, as a control group, the powder of compound A was subjected to a similar dissolution test and found to show a dissolution rate of 99% after 10 min.
To be specific, a dissolution test of the tablet obtained in Example 13 was performed in the same manner as in Experimental Example 1. In addition, as a control group, the tablet of Reference Example 1 was subjected to a similar dissolution test and found to show a dissolution rate of 100% after 10 min.
To be specific, each tablet obtained in Examples 7 and 21 was subjected to a dissolution test (Paddle Method, The Japanese Pharmacopoeia Degradation Test 1st fluid (hereinafter to be abbreviated as The Japanese Pharmacopoeia 1st fluid) 500 mL, number of rotation 100 rpm). In addition, in the same manner as above except that the eluent was a CTAB-containing The Japanese Pharmacopoeia 2nd fluid, a dissolution test of the tablets obtained in Examples 7 and 21 was performed. The results are shown in Table 4 and Table 5, respectively.

dissolution rate: 99%
SMILES: CC(C)Cn1c(CN)c(-c2ccccc2)c2cc(C(N)=O)ccc2c1=O [Compound A, 3-(aminomethyl)-2-isobutyl-1-oxo-4-phenyl-1,2-dihydroisoquinoline-6-carboxamide]
